Measurements reported in patent publication US8748436B2, “Carboxylic acid derivatives having a 2,5,7-substituted oxazolopyrimidine ring” (Sanofi, priority 2010, dated 2014).

Target: T1, human Edg-1 receptor (Homo sapiens, UniProt P21453)
T1 construct: FLAG (N); expressed in transfected cells; membrane preparation
Test: GTP-γ-S assay using human Edg-1 receptors (scintillation proximity assay, CHO Flp-In cell membrane preparation)
Assay type: biochemical
Conditions: test compound at 10 μM; high control 10 μM S1P regarded as 100% activation; [35S]GTP-γ-S binding, triplicate; read-out: % Activation (Edg-1 receptor activation in percent of the activation by 10 μM S1P)
Procedure, shortened: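 Scintillation proximity GTP-γ-S binding measured receptor activation. Membranes came from a stably transfected CHO Flp-In line constitutively overexpressing N-terminally FLAG-tagged human Edg-1. Membranes were prepared by hypotonic lysis (5 mM HEPES, 1 mM EDTA, protease inhibitors) at 4 °C and Dounce homogenisation.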

T1 sequence (P21453 whole entry): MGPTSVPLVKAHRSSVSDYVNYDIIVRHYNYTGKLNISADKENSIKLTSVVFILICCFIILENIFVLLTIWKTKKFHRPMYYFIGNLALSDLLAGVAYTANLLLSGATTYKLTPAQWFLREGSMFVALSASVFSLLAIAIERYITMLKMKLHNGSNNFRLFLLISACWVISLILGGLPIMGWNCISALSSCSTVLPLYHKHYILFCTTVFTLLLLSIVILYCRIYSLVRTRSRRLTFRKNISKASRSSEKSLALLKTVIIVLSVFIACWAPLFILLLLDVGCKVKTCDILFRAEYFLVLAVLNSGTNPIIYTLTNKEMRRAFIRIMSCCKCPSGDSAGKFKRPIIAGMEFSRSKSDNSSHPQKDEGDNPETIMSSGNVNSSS

Structure (SMILES) | activation at 10 µM [%]
CCCOc1nc(Oc2ccccc2Cl)nc2oc(-c3cc(C)c(OCC(=O)O)c(C)c3)nc12 [Example 47, {4-[5-(2-chlorophenoxy)-7-propoxy-oxazolo[5,4-d]pyrimidin-2-yl]-2,6-dimethylphenoxy}-acetic acid] | 86
CCCOc1nc(Oc2ccccc2OC(F)(F)F)nc2oc(-c3cc(C)c(OCC(=O)O)c(C)c3)nc12 [Example 71, {2,6-dimethyl-4-[7-propoxy-5-(2-trifluoromethoxyphenoxy)-oxazolo[5,4-d]pyrimidin-2-yl]-phenoxy}-acetic acid] | 62
CCCOc1nc(Oc2ccc(F)c(F)c2)nc2oc(-c3cc(C)c(OCC(=O)O)c(C)c3)nc12 [Example 51, {4-[5-(3,4-difluorophenoxy)-7-propoxy-oxazolo[5,4-d]pyrimidin-2-yl]-2,6-dimethylphenoxy}-acetic acid] | 49
CCCOc1nc(O[C@@H]2CCCC[C@H]2F)nc2oc(-c3cc(C)c(OCC(=O)O)c(C)c3)nc12 (relative stereo) [Example 3, {4-[5-(trans-2-Fluoro-cyclohexyloxy)-7-propoxy-oxazolo[5,4-d]pyrimidin-2-yl]-2,6-dimethyl-phenoxy}-acetic acid] | 65
CCCOc1nc(Oc2ccc(C)nc2)nc2oc(-c3cc(C)c(OCC(=O)O)c(C)c3)nc12 [Example 32, {2,6-dimethyl-4-[5-(6-methylpyridin-3-yloxy)-7-propoxy-oxazolo[5,4-d]pyrimidin-2-yl]-phenoxy}-acetic acid] | 114
CCCOc1nc(OCCC)c2nc(-c3cc(C)c(OCC(=O)O)c(C)c3)oc2n1 [Example 15, [4-(5,7-dipropoxy-oxazolo[5,4-d]pyrimidin-2-yl)-2,6-dimethyl-phenoxy]-acetic acid] | 98
